The results in this text go back to ChEMBL document CHEMBL1201862, “PubChem BioAssay data set” (2004).

Among the test systems are EKVX; SK-MEL-2; NCI-H522; UACC-257; M14; NCI-H226; DMS-114; HOP-62; SNB-75; Malme-3M; HCT-15; RPMI-8226; MOLT-4; U-251; HCC 2998; CAKI-1; MDA-MB-435; T47D; LOX IMVI; HOP-92.
Common to all, as to experiment: DTP human tumour cell line panel, 48 h

Each structure is given as a SMILES string.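 Test compounds were applied to cells in 96-well plates for 48 hours at 5 doses. GI50 is the concentration that inhibits growth by half.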 Active and inactive are the calls of the source. Rule as the data show it: active = GI50 up to about 1.1 µM and inactive = higher.

By GI50 is commonly meant the concentration at which growth is held to half of that of the control. With `CC1=C(C)C(=O)C2=C(OCCCO2)C1=O`, the GI50 is 17.2 µM (inactive) in the assay on EKVX; > 10 µM (inactive) in the assay on SK-MEL-2; 18 µM (inactive) in the assay on NCI-H522; > 10 µM (inactive) with UACC-257; 17 µM (inactive) with M14; > 10 µM (inactive) in the assay with NCI-H226. Besides, the GI50 was 18.4 µM (inactive) in the assay with DMS-114; > 100 µM (inactive) in the assay with HOP-62; 23.8 µM (inactive) in the assay with SNB-75; > 10 µM (inactive) with Malme-3M; over 100 µM with HCT-15; 16.5 µM (inactive) in the assay with RPMI-8226. In addition, the GI50 with MOLT-4 is 2.4 µM (inactive); in the assay with U-251, > 100 µM (inactive); with HCC 2998, 59.4 µM (inactive).
With `C[Si](C)(C)OC1(C#N)C2C3CC4C2C(=O)C2C4C3C21` (centres undefined), the GI50 in the assay with SK-MEL-2, with CAKI-1, in the assay with UACC-257, in the assay on M14, with NCI-H226 and in the assay with DMS-114 was > 100 µM (inactive) throughout. Besides, the GI50 in the assay on HOP-62 was > 100 µM (inactive); in the assay with SNB-75 it was > 100 µM (inactive); in the assay on Malme-3M it was > 100 µM (inactive); with HCT-15 it was over 100 µM; in the assay on RPMI-8226, > 100 µM (inactive); with MOLT-4 it was > 100 µM (inactive). Moreover, the GI50 in the assay on U-251 and with HCC 2998 was > 100 µM (inactive) in each case.
For `CCCc1nnc2sc(COc3cc(Cl)c(OCc4nn5c(CCC)nnc5s4)cc3Cl)nn12`, the GI50 with MDA-MB-435 was 35.3 µM (inactive); in the assay with T47D it was 15.2 µM (inactive); in the assay with EKVX, 22.6 µM (inactive); in the assay on SK-MEL-2, > 100 µM (inactive); in the assay with CAKI-1 it was 38.5 µM (inactive); in the assay with NCI-H522, 27.3 µM (inactive). Besides, the GI50 with UACC-257 is 34.1 µM (inactive); with M14, 44.7 µM (inactive); in the assay on NCI-H226, > 100 µM (inactive); in the assay on LOX IMVI, 37.1 µM (inactive); in the assay on HOP-92 it was 22 µM (inactive); in the assay on HOP-62 it was 38.4 µM (inactive). The GI50 with SNB-75 was 21.7 µM (inactive); in the assay with Malme-3M, 25.9 µM (inactive); with HCT-15, 0.904 µM; in the assay on RPMI-8226 it was 0.0885 µM (active); with MOLT-4 it was 0.4 µM (active); in the assay with U-251, 37.2 µM (inactive). For the same compound, the GI50 in the assay with HCC 2998 was 77.8 µM (inactive).
On to `CCC(C)(C)NS(=O)(=O)c1ccccc1`, for which the GI50 in the assay with EKVX was > 100 µM (inactive); in the assay on SK-MEL-2, > 100 µM (inactive); in the assay with CAKI-1, > 100 µM (inactive); in the assay on UACC-257 it was > 100 µM (inactive); in the assay with M14, > 100 µM (inactive); in the assay with NCI-H226 it was > 10 µM (inactive). In addition, the GI50 in the assay with DMS-114 was > 100 µM (inactive); with HOP-62 it was > 100 µM (inactive); in the assay with SNB-75 it was > 100 µM (inactive); in the assay on Malme-3M it was > 100 µM (inactive); in the assay on HCT-15, over 100 µM; in the assay on RPMI-8226, > 100 µM (inactive). For the same compound, the GI50 with MOLT-4, in the assay on U-251 and in the assay with HCC 2998 was > 100 µM (inactive) throughout.
For `N#C/N=C(\NCCc1c[nH]c2ccccc12)NCc1ccccc1`, the GI50 was 45.6 µM (inactive) in the assay with EKVX; 37 µM (inactive) in the assay on UACC-257; 51.1 µM (inactive) in the assay on M14; 34.4 µM (inactive) with NCI-H226; 32.9 µM (inactive) in the assay with DMS-114; 75.9 µM (inactive) in the assay on LOX IMVI. The GI50 in the assay on HOP-62 was > 100 µM (inactive); in the assay with SNB-75, 43.8 µM (inactive); in the assay on HCT-15 it was 49.4 µM; in the assay on RPMI-8226, 42.6 µM (inactive); in the assay on MOLT-4 it was 34.9 µM (inactive); in the assay with U-251, 35.2 µM (inactive). The GI50 with HCC 2998 is 32.5 µM (inactive).
Take `COc1ccc(C2c3cc4c(cc3OC(NNc3ccccc3)C2C)OCO4)cc1` (centres undefined): the GI50 in the assay on MDA-MB-435 was 4.71 µM (inactive); with T47D it was 6.12 µM (inactive); in the assay on EKVX it was 3.75 µM (inactive); in the assay with SK-MEL-2, 21.7 µM (inactive); in the assay with CAKI-1, 5.89 µM (inactive); with NCI-H522, 2.77 µM (inactive). The GI50 in the assay with UACC-257 is 5.79 µM (inactive); in the assay with M14, 6.14 µM (inactive); with NCI-H226, 16.3 µM (inactive); with LOX IMVI it was 16.6 µM (inactive); in the assay with HOP-92 it was 19.5 µM (inactive); in the assay on HOP-62, 3.5 µM (inactive). The GI50 is 22.6 µM (inactive) in the assay with SNB-75; 8.47 µM (inactive) in the assay on Malme-3M; 1.05 µM in the assay with HCT-15; 4.47 µM (inactive) with RPMI-8226; 3.15 µM (inactive) with MOLT-4; 7.35 µM (inactive) with U-251. The GI50 in the assay with HCC 2998 is 1.82 µM (inactive).
For `COc1cc2c(cc1C[N+](C)(C)CSc1ccccc1)-c1ccccc1CC2`, the GI50 in the assay with MDA-MB-435 was 3.18 µM (inactive); in the assay on T47D, 2.91 µM (inactive); in the assay with EKVX it was 10.6 µM (inactive); with SK-MEL-2, 2 µM (inactive); with CAKI-1 it was 13.5 µM (inactive); with NCI-H522 it was 2.01 µM (inactive). Further, the GI50 in the assay with UACC-257 is 2.52 µM (inactive); with M14, 2.07 µM (inactive); with NCI-H226, 9.02 µM (inactive); in the assay on LOX IMVI, 4 µM (inactive); with HOP-92 it was 8.51 µM (inactive); with HOP-62 it was 11.4 µM (inactive). Moreover, the GI50 is 1.19 µM (inactive) with SNB-75; 1.71 µM (inactive) with Malme-3M; 16.5 µM in the assay on HCT-15; 1.57 µM (inactive) with RPMI-8226; 2.33 µM (inactive) with MOLT-4; 4.14 µM (inactive) in the assay on U-251. In the assay with HCC 2998, the GI50 was 4.31 µM (inactive).
For the compound `CC[C@H](C)c1occ2c(O)c(C(=O)O)c(=O)cc-2c1C`, the GI50 in the assay on MDA-MB-435 is 22.1 µM (inactive); with T47D it was 20.7 µM (inactive); in the assay with EKVX it was 30.8 µM (inactive); with SK-MEL-2, 17.3 µM (inactive); with CAKI-1, 37.8 µM (inactive); in the assay on NCI-H522, 14.7 µM (inactive). Further, the GI50 in the assay on UACC-257 was 30.3 µM (inactive); with M14, 31.5 µM (inactive); in the assay on NCI-H226, 33.8 µM (inactive); in the assay with LOX IMVI, 15.6 µM (inactive); in the assay on HOP-92, 21.8 µM (inactive); with HOP-62, 24.9 µM (inactive). For the same compound, the GI50 was 55.6 µM (inactive) with SNB-75; 17.5 µM (inactive) in the assay on Malme-3M; 16.7 µM in the assay with HCT-15; 30.7 µM (inactive) with RPMI-8226; 19.8 µM (inactive) in the assay on MOLT-4; 28.5 µM (inactive) in the assay with U-251. Besides, the GI50 in the assay with HCC 2998 is 21.1 µM (inactive).
With `Cn1ccnc1Sc1ccc(/C=N/c2ccc3nc(SCC(=O)NC4CCCCC4)sc3c2)cc1[N+](=O)[O-]`, the GI50 is > 100 µM (inactive) with MDA-MB-435; > 100 µM (inactive) with T47D; > 100 µM (inactive) in the assay on EKVX; 18.6 µM (inactive) with SK-MEL-2; > 100 µM (inactive) in the assay on CAKI-1; 65.9 µM (inactive) with NCI-H522. The GI50 in the assay with UACC-257 was > 100 µM (inactive); in the assay with M14, 38.2 µM (inactive); in the assay on NCI-H226 it was > 100 µM (inactive); in the assay with LOX IMVI, 95.1 µM (inactive); in the assay on HOP-92, 12.1 µM (inactive); with HOP-62 it was 28.4 µM (inactive). Besides, the GI50 with SNB-75 was 2.7 µM (inactive); with Malme-3M, > 100 µM (inactive); with HCT-15 it was over 100 µM; in the assay with RPMI-8226 it was > 100 µM (inactive); in the assay on MOLT-4, > 100 µM (inactive); in the assay on U-251, 8.09 µM (inactive). Also, the GI50 in the assay on HCC 2998 is > 100 µM (inactive).
On to `Cc1nc(=O)[nH]c(NCCNCCO)c1C(=O)Nc1cccc2cc3ccccc3cc12`, for which the GI50 with MDA-MB-435, in the assay with T47D, in the assay on EKVX, with SK-MEL-2, with CAKI-1 and with NCI-H522 was > 100 µM (inactive) throughout. Besides, the GI50 in the assay with UACC-257, in the assay with M14, in the assay with NCI-H226, in the assay on LOX IMVI, with HOP-92 and in the assay on HOP-62 was > 100 µM (inactive) each time. The GI50 in the assay on SNB-75 was > 100 µM (inactive); with Malme-3M it was > 100 µM (inactive); in the assay with HCT-15, over 100 µM; with RPMI-8226, > 100 µM (inactive); in the assay with MOLT-4, > 100 µM (inactive); with U-251, > 100 µM (inactive). The GI50 with HCC 2998 is > 100 µM (inactive).
For `Cc1cc(=O)oc2c(C)c(O)ccc12`, the GI50 was > 100 µM (inactive) with MDA-MB-435; > 100 µM (inactive) in the assay with T47D; > 100 µM (inactive) with EKVX; > 100 µM (inactive) in the assay with SK-MEL-2; 55.6 µM (inactive) in the assay on CAKI-1; > 100 µM (inactive) with NCI-H522. The GI50 in the assay with UACC-257, with M14, with NCI-H226, in the assay with LOX IMVI, with HOP-92 and in the assay with HOP-62 was > 100 µM (inactive) throughout. In addition, the GI50 with SNB-75 is > 100 µM (inactive); in the assay on Malme-3M, > 100 µM (inactive); in the assay with HCT-15, over 100 µM; in the assay on RPMI-8226 it was 62.1 µM (inactive); with MOLT-4 it was 89.1 µM (inactive); in the assay with U-251, > 100 µM (inactive). In addition, the GI50 with HCC 2998 was > 100 µM (inactive).
As for `O=C(CSc1nnc(Cc2ccccc2)o1)Nc1ccccc1Cl`, the GI50 in the assay with SK-MEL-2, with CAKI-1, in the assay on NCI-H522, in the assay on M14, in the assay on NCI-H226 and in the assay with DMS-114 was > 100 µM (inactive) each time. The GI50 in the assay with LOX IMVI is > 100 µM (inactive); in the assay on HOP-62 it was > 100 µM (inactive); with Malme-3M, > 100 µM (inactive); in the assay on HCT-15 it was over 100 µM; in the assay with RPMI-8226, > 100 µM (inactive); with MOLT-4, > 100 µM (inactive). The GI50 with U-251 and in the assay on HCC 2998 was > 100 µM (inactive) each time.
